Experimental data published in the METLIN SMRT retention time set (Domingo-Almenara et al. 2019).

Test: gradient 5% acetonitrile 3 min, to 50% in 2 min, to 85% in 15 min, held 3 min, 100 µL/min
Conditions: column: Zorbax Extend-C18 2.1 x 50 mm; eluents: water / acetonitrile, 0.1% formic acid
Method in brief: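 Retention time was recorded from adduct peaks, which were picked computationally and each inspected manually. Pure standards ran in mixtures of ~100 molecules on HPLC coupled to a quadrupole time-of-flight mass spectrometer, in positive and negative ionization mode, through a Zorbax Extend-C18 column (2.1 × 50 mm, 1.8 μm) at 100 μL/min. Eluents were water and acetonitrile, each with 0.1% formic acid.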

| Structure (SMILES) | RP-LC retention time [s] |
| --- | --- |
| CC(C)CN(Cc1cccnc1)C1CN(S(=O)(=O)Cc2ccccc2)C1 | 719 |
| CCN(CC)S(=O)(=O)c1ccc2c(c1)CC(C(=O)NCCN1CCCCCC1)N2C(C)=O (configuration not stated) | 631 |
| O=C(Nc1ccc2ncnc(N3CCCCC3)c2c1)c1ccc(Br)o1 | 704 |
| COc1ccc(CC(=O)N2C[C@@H]3C[C@H](NC(=O)c4ccccc4)[C@H]2C3)cc1 | 725 |
| N#CSc1ccc(NC(=O)c2ccc(-n3cnnn3)cc2)cc1 | 754 |
| Cc1ccc(CNC(=O)N(C)CCc2noc(-c3ccc(F)cc3)n2)cc1 | 915 |
| COCCN1C(=O)c2cccn2CC1CNC(=O)Cc1c(C)noc1C (configuration not stated) | 610 |
| CCC(C(=O)Nc1nc2ccccc2[nH]1)n1cnc2ccccc2c1=O (configuration not stated) | 652 |
| Cc1ccccc1OCc1nc(-c2ccc3c(c2)oc(=O)n3C(C)C)no1 | 1160 |
| CCCNC(=O)CCc1nc2ccccc2n(CC(=O)Nc2ccc(C(C)C)cc2)c1=O | 891 |
| N#Cc1nnn2c1nc(N)c1c(Cl)cccc12 | 817 |
| Cc1ccc2[nH]c(C(=O)NC3CCN(C)CC3)cc2c1 | 845 |
| CC(C)C(=O)N1CCc2cc(C(=O)NC3CC3)ccc21 | 698 |
| CCCn1ncc(N2CCC(C(=O)NCCCOC(C)C)CC2)cc1=O | 650 |
| CS(=O)(=O)N1CCC(N2C[C@H](Oc3ccccc3)[C@@H]2c2ccncc2)CC1 | 630 |
| CCS(=O)(=O)N1CCC(C(=O)NCCc2csc(-c3ccccc3)n2)CC1 | 765 |
| CCOC(=O)CNC(=O)N1CCN(Cc2nc3cc(C)ccc3o2)CC1 | 616 |
| Cc1ccc(Nc2nc(-c3ccc(C)cc3C)cs2)nc1 | 965 |
| O=C(NCCc1csc(C2CCN(C(=O)C3CCC3)CC2)n1)C1CCC1 | 703 |
| COc1ccccc1C(=O)N1CCC2(CC1)N=C(c1ccc(Cl)cc1)NO2 | 865 |
| CCN1/C(=C/C(C)=O)Sc2ccc(OC)cc21 | 845 |
| O=C(Cn1cc2c(n1)CCCC2)N1CCC(Cc2ccccc2)CC1 | 965 |
| CC(C)C(NC(=O)Nc1ccc(F)cc1)C(=O)N1CCc2ccccc21 (configuration not stated) | 960 |

| Structure (SMILES) | RP-LC retention time [s] |
| --- | --- |
| Cc1ccc(NS(=O)(=O)c2cn(C)c3ncccc23)cc1 | 774 |
| COc1ccc(C2=Nc3ccccc3N(CC(=O)Nc3ccc4c(c3)OCO4)C(=O)C2)cc1 | 895 |
| CCc1nc(OCC(=O)Nc2ccccc2CC)c2ccccc2n1 | 830 |
| CCCC(=O)N1CCCC1COc1ccc(C(=O)NC2CC2)cc1 (configuration not stated) | 717 |
| Cc1ccccc1-c1noc(CCc2nnc3ccc(N4CCN(c5ccc(F)cc5)CC4)nn23)n1 | 1110 |
| O=C(NCCc1noc(C2CC2)n1)c1cccs1 | 700 |
| CC(C)Cn1c(=O)c(N2CCN(C(=O)CCCc3ccccc3)CC2)nc2ccncc21 | 742 |
| Cc1ccc(N2C(=O)CCS2(=O)=O)cc1S(=O)(=O)N1c2ccccc2CC1C (configuration not stated) | 867 |
| Cn1c(=O)c2ccn(CC(=O)N3CCC(C(N)=O)(N4CCCCC4)CC3)c2n(C)c1=O | 728 |
| Cc1ccccc1-c1noc(Cn2nc(-c3ccc4c(c3)OCO4)ccc2=O)n1 | 943 |
| COc1cccc(OC)c1C(=O)Nc1nc(-c2ccc3c(c2)NC(=O)C(C)O3)c(C)s1 (configuration not stated) | 866 |
| CC(C)(C)CC(=O)N1CCN(c2nc(CN3CCOCC3)cs2)CC1 | 611 |
| COC(=O)CSCC(=O)Nc1cc(C)ccc1C | 729 |
| Cc1nc(-c2ccc(F)cc2)nc2c1CCC(=O)N2Cc1ccco1 | 720 |
| C=CCn1nc(-c2nc(-c3cccc(Cl)c3)no2)ccc1=O | 1060 |
| Cc1ccc2nc(N3CCN(Cc4ccccc4)CC3)c(-c3noc(C)n3)cc2c1 | 686 |
| CCCn1ncc(N2CCC(C(=O)N(C)Cc3cn(C)nc3C)CC2)cc1=O | 619 |
| O=C(Cn1ccn2nc(-c3ccccc3)c(CO)c2c1=O)Nc1ccc2c(c1)CCC2 | 906 |
| COc1cccc(NC(=O)Cc2csc3nc(-c4ccccc4)cn23)c1 | 791 |
| Cc1cccc(C)c1Nc1c(-c2ccccc2)nc2ncccn12 | 786 |
| O=C(CCNc1c(-c2cccc(F)c2)nc2cnccn12)N1CCCC1 | 670 |
| CN(C)c1ccc(CNC(=O)C2CCN(S(=O)(=O)c3ccc4[nH]c(=O)ccc4c3)CC2)cc1 | 580 |
| COCCn1cc2c3c(cccc31)CN(C(=O)Nc1cc(OC)cc(OC)c1)CC2 | 926 |

Continued, values first:

| RP-LC retention time [s] | Structure (SMILES) |
| --- | --- |
| 701 | COc1ccc(C(=O)N2C[C@@H]3C[C@H](NC(=O)c4cccs4)[C@H]2C3)c(OC)c1 |
| 694 | COCCN1C(=O)[C@H]2CN(Cc3cccc(C(F)(F)F)c3)C[C@H]2C1=O |
| 654 | Cn1cnc(S(=O)(=O)N2CCC[C@H](n3c(=O)n(C)c4cccnc43)C2)c1 |
| 840 | COc1cccc(CNC(=O)NC2CCN(c3cc(C)cc(C)c3)C2=O)c1 (configuration not stated) |
| 1020 | CCC(c1cccs1)N1C(=O)[C@H]2CN(S(=O)(=O)c3ccc(F)c(F)c3)C[C@H]2C1=O (some centres not stated) |
| 895 | CSc1ccc(CNC(=O)c2cc3n(n2)CCCN(Cc2ccccc2)C3=O)cc1 |
| 772 | CC(C)n1cnc(S(=O)(=O)N2CCCC(C(=O)Nc3ccccc3F)C2)c1 (configuration not stated) |
| 818 | COc1ccc(NC(=O)C2CC(=O)N(CCc3c[nH]c4ccc(Cl)cc34)C2)cc1 (configuration not stated) |
| 1110 | CC(C)Oc1ccc(-c2noc(CN3N=NC4C(=O)N(c5ccc(F)c(F)c5)C(=O)C43)n2)cc1 (configuration not stated) |
| 746 | Cc1ccc(CN2CCCN(c3ncccc3-c3nc(C(C)C)no3)CC2)cc1 |
| 623 | CN1C(=O)[C@H]2CN(Cc3ccc(F)c(Cl)c3)C[C@H]2C1=O |
| 936 | C[C@@H]1CN(C(=O)c2ccco2)C[C@H]1c1nc(-c2ccccc2)no1 |
| 718 | COc1ccc(NC(=O)Cn2nc3nc(Nc4ccc(F)cc4)ccn3c2=O)cc1Cl |
| 633 | CC(=O)N[C@@H]1CN(C(=O)COc2ccc(Cl)cc2)C[C@H]1CO |
| 772 | Cc1cc(Cl)ccc1NS(=O)(=O)c1cc(-c2[nH]ncc2C(=O)N2CCCC2)oc1C |
| 1010 | O=C(NCc1cccs1)C(=O)c1cccn1Cc1ccc(F)cc1 |
| 691 | CN1C(=O)NC(c2ccc(Cl)cc2)C2=C1CN(c1ccc(C(=O)O)cc1)C2=O (configuration not stated) |
| 669 | Cc1ccc(NC(=O)Cn2c(N3CCCC3)nc(C)cc2=O)c(C)c1 |
| 702 | CCCCOc1ccc(C(=O)N2CCN(c3nc4ccncc4n(C)c3=O)CC2)cc1 |
| 818 | Cc1cccc(-c2noc(C3CCCN3C(=O)NCC3CCCO3)n2)c1 (configuration not stated) |
| 1030 | CCCn1cc(C(=O)Nc2ccc(F)cc2)c(S(=O)(=O)N2CCSCC2)n1 |
